Reference: patent US10800791B2, “Triazole ACC inhibitors and uses thereof” (Gilead Apollo, LLC, priority 2015, dated 2020)
In brackets after ≈: the same amount, converted by molar mass. Read-outs that look alike come from different tables or passages of the source.

Columns and labels:
human (hACC2) = human (hACC2) (Homo sapiens, UniProt O00763); assay: In vitro ACC inhibition assay (ADP-Glo), hACC2; type: biochemical; conditions: 5 nM ACC2, 20 μM ATP, 20 μM acetyl-CoA
Protocol: The detailed procedure is as follows. […] 10 μL ADP glo reagent was added. […] 20 μL kinase detection reagent was added.

C. albicans = assay: Antifungal Activity Assay (broth microtiter MIC), C. albicans; type: cell-based, Candida albicans; conditions: Candida albicans, ATCC90028, 48 h
Method in brief: (§1)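 CLSI M27-A3 microdilution; RPMI 1640+MOPS; 2.5×10^3 CFU/mL final inoculum; cultures from Sabouraud dextrose agar, 35° C overnight; compound working solution 128 μg/mL from 1 mg/mL DMSO stock; visual MIC at 48 h vs growth control.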

C. parapsilosis = assay: Antifungal Activity Assay (broth microtiter MIC), C. parapsilosis; type: cell-based, Candida parapsilosis; conditions: Lodderomyces parapsilosis, ATCC22019, 48 h
Method in brief: as §1

Botrtyis cinerea (Bc) = assay: Growth inhibition assay of fungal pathogens, Bc; type: cell-based; conditions: 48 h
Method in brief: (§2)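 Inhibition percentages reflect 48 h OD600 and visual scores relative to a 2% DMSO control. Test concentrations were 50, 10, 2 ppm or 2, 0.4, 0.08 ppm final, applied to spores in 17% V8 medium.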

[1] = test system: Collectotrichum graminicola (Cg); assay: Growth inhibition assay of fungal pathogens, Cg; type: cell-based; conditions: 48 h
Method in brief: as §2

Diplodia maydis (Dm) = assay: Growth inhibition assay of fungal pathogens, Dm; type: cell-based; conditions: Stenocarpella maydis, 48 h
Method in brief: as §2

[2] = test system: Phytophthora capsici (Pc); assay: Growth inhibition assay of fungal pathogens, Pc; type: cell-based; conditions: 48 h
Method in brief: as §2

Rhizoctonia solani (Rs) = assay: Growth inhibition assay of fungal pathogens, Rs; type: cell-based; conditions: 48 h
Septoria tritici (St) = assay: Growth inhibition assay of fungal pathogens, St; type: cell-based; conditions: Zymoseptoria tritici, 48 h
Method in brief: as §2

fungal (fACC2) = fungal (fACC2) (UniProt Q00955); conditions: read-out: fACC2 (in vitro ACC2 Inhibition Assay, IC50), ADP-Glo, 5 nM ACC2, 20 μM ATP, 20 μM acetyl-CoA
fungal (fACC2), sequence (Q00955 whole entry): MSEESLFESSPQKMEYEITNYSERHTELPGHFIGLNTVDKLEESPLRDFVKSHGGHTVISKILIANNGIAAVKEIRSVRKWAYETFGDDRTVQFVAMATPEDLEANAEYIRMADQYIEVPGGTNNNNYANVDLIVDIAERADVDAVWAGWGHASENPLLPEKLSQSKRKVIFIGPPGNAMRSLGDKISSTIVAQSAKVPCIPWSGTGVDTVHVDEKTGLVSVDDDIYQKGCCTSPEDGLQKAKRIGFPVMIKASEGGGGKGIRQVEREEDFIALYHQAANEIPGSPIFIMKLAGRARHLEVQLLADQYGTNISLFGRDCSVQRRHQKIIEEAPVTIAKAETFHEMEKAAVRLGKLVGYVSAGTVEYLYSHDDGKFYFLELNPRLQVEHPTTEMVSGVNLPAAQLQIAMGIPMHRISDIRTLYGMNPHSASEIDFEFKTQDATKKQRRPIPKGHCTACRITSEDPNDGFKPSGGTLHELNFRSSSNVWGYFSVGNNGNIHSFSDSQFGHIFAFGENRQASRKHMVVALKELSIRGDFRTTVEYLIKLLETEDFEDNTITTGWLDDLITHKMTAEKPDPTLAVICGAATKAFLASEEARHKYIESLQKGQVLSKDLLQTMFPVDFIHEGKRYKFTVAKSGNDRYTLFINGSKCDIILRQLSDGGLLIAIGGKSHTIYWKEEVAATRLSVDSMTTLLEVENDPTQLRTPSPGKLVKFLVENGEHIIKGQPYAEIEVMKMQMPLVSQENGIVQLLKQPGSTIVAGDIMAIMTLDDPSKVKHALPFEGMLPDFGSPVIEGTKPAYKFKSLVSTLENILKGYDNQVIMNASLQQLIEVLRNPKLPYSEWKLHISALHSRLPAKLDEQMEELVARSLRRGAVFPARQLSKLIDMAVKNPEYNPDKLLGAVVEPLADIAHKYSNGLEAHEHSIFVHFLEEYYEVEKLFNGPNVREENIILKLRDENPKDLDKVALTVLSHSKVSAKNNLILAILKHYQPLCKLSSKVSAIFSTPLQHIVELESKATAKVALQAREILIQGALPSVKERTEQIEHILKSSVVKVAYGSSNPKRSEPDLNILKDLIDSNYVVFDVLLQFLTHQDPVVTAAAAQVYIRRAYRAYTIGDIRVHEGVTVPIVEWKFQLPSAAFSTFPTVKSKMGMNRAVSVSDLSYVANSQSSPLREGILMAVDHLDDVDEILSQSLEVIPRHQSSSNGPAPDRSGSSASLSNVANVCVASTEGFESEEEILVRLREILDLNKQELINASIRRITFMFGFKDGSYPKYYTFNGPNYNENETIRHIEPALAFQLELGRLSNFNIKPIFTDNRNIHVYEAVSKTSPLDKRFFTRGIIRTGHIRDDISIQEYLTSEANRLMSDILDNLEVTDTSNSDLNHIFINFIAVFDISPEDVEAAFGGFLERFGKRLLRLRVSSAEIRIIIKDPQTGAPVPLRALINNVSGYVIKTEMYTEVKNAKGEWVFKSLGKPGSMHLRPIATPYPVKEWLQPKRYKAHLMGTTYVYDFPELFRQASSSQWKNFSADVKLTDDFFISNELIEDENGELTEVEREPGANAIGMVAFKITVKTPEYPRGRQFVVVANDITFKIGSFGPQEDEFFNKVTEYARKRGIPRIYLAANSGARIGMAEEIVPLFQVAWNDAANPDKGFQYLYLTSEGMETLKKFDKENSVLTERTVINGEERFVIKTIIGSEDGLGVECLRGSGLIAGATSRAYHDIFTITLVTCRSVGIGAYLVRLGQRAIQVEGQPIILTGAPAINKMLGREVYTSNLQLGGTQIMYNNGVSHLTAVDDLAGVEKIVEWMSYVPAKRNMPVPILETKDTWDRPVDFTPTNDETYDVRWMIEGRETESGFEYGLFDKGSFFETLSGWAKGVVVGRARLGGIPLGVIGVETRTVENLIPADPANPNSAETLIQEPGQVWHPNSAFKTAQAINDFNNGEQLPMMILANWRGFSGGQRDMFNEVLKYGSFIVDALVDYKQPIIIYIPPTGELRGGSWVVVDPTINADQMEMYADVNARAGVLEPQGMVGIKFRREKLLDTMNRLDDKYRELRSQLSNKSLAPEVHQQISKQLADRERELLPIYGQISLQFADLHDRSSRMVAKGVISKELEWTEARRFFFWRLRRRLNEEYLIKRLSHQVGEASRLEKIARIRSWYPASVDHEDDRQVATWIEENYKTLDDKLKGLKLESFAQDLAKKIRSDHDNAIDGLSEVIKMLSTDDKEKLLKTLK

[3] = read-out: MIC, C. albicans ATCC 90028, Table 3a, 3 replicates, MIC recorded at 48 h
[4] = read-out: MIC, C. albicans ATCC 90028, Table 3b (additional results), 3 replicates, MIC recorded at 48 h
[5] = read-out: MIC, C. parapsilosis ATCC 22019, Table 3a, 3 replicates, MIC recorded at 48 h
[6] = read-out: MIC, C. parapsilosis ATCC 22019, Table 3b (additional results), 3 replicates, MIC recorded at 48 h
[7] = read-out: Concentration at 90% Inhibition Bc, Botrtyis cinerea, growth inhibition at 48 hours vs 2% DMSO control
[8] = read-out: Concentration at 90% Inhibition Bc, Botrtyis cinerea, growth inhibition vs 2% DMSO control at 48 hours
[9] = read-out: Concentration at 90% Inhibition Cg, Collectotrichum graminicola, growth inhibition at 48 hours vs 2% DMSO control
[10] = read-out: Concentration at 90% Inhibition Cg, Collectotrichum graminicola, growth inhibition vs 2% DMSO control at 48 hours
[11] = read-out: Concentration at 90% Inhibition Dm, Diplodia maydis, growth inhibition at 48 hours vs 2% DMSO control
[12] = read-out: Concentration at 90% Inhibition Dm, Diplodia maydis, growth inhibition vs 2% DMSO control at 48 hours
[13] = read-out: Concentration at 90% Inhibition Pc, Phytophthora capsici, growth inhibition at 48 hours vs 2% DMSO control
[14] = read-out: Concentration at 90% Inhibition Pc, Phytophthora capsici, growth inhibition vs 2% DMSO control at 48 hours
[15] = read-out: Concentration at 90% Inhibition Rs, Rhizoctonia solani, mycelial plugs, growth inhibition at 48 hours vs 2% DMSO control
[16] = read-out: Concentration at 90% Inhibition Rs, Rhizoctonia solani, mycelial plugs, growth inhibition vs 2% DMSO control at 48 hours
[17] = read-out: Concentration at 90% Inhibition St, Septoria tritici, growth inhibition at 48 hours vs 2% DMSO control
[18] = read-out: Concentration at 90% Inhibition St, Septoria tritici, growth inhibition vs 2% DMSO control at 48 hours
[19] = Table 3a, ATCC 90028, 3 replicates, MIC recorded at 48 h, read-out: MIC, C. albicans ATCC 90028
[20] = Table 3b (additional results), ATCC 90028, 3 replicates, MIC recorded at 48 h, read-out: MIC, C. albicans ATCC 90028
[21] = Table 3a, ATCC 22019, 3 replicates, MIC recorded at 48 h, read-out: MIC, C. parapsilosis ATCC 22019
[22] = Table 3b (additional results), ATCC 22019, 3 replicates, MIC recorded at 48 h, read-out: MIC, C. parapsilosis ATCC 22019
[23] = Botrtyis cinerea, growth inhibition at 48 hours vs 2% DMSO control, read-out: Concentration at 90% Inhibition Bc
[24] = Botrtyis cinerea, growth inhibition vs 2% DMSO control at 48 hours, read-out: Concentration at 90% Inhibition Bc
[25] = Collectotrichum graminicola, growth inhibition at 48 hours vs 2% DMSO control, read-out: Concentration at 90% Inhibition Cg
[26] = Collectotrichum graminicola, growth inhibition vs 2% DMSO control at 48 hours, read-out: Concentration at 90% Inhibition Cg
[27] = Diplodia maydis, growth inhibition at 48 hours vs 2% DMSO control, read-out: Concentration at 90% Inhibition Dm
[28] = Diplodia maydis, growth inhibition vs 2% DMSO control at 48 hours, read-out: Concentration at 90% Inhibition Dm
[29] = growth inhibition at 48 hours vs 2% DMSO control, read-out: Concentration at 90% Inhibition Pc
[30] = growth inhibition vs 2% DMSO control at 48 hours, read-out: Concentration at 90% Inhibition Pc
[31] = mycelial plugs, growth inhibition at 48 hours vs 2% DMSO control, read-out: Concentration at 90% Inhibition Rs
[32] = mycelial plugs, growth inhibition vs 2% DMSO control at 48 hours, read-out: Concentration at 90% Inhibition Rs
[33] = Septoria tritici, growth inhibition at 48 hours vs 2% DMSO control, read-out: Concentration at 90% Inhibition St
[34] = Septoria tritici, growth inhibition vs 2% DMSO control at 48 hours, read-out: Concentration at 90% Inhibition St

human (hACC2), sequence (O00763 whole entry): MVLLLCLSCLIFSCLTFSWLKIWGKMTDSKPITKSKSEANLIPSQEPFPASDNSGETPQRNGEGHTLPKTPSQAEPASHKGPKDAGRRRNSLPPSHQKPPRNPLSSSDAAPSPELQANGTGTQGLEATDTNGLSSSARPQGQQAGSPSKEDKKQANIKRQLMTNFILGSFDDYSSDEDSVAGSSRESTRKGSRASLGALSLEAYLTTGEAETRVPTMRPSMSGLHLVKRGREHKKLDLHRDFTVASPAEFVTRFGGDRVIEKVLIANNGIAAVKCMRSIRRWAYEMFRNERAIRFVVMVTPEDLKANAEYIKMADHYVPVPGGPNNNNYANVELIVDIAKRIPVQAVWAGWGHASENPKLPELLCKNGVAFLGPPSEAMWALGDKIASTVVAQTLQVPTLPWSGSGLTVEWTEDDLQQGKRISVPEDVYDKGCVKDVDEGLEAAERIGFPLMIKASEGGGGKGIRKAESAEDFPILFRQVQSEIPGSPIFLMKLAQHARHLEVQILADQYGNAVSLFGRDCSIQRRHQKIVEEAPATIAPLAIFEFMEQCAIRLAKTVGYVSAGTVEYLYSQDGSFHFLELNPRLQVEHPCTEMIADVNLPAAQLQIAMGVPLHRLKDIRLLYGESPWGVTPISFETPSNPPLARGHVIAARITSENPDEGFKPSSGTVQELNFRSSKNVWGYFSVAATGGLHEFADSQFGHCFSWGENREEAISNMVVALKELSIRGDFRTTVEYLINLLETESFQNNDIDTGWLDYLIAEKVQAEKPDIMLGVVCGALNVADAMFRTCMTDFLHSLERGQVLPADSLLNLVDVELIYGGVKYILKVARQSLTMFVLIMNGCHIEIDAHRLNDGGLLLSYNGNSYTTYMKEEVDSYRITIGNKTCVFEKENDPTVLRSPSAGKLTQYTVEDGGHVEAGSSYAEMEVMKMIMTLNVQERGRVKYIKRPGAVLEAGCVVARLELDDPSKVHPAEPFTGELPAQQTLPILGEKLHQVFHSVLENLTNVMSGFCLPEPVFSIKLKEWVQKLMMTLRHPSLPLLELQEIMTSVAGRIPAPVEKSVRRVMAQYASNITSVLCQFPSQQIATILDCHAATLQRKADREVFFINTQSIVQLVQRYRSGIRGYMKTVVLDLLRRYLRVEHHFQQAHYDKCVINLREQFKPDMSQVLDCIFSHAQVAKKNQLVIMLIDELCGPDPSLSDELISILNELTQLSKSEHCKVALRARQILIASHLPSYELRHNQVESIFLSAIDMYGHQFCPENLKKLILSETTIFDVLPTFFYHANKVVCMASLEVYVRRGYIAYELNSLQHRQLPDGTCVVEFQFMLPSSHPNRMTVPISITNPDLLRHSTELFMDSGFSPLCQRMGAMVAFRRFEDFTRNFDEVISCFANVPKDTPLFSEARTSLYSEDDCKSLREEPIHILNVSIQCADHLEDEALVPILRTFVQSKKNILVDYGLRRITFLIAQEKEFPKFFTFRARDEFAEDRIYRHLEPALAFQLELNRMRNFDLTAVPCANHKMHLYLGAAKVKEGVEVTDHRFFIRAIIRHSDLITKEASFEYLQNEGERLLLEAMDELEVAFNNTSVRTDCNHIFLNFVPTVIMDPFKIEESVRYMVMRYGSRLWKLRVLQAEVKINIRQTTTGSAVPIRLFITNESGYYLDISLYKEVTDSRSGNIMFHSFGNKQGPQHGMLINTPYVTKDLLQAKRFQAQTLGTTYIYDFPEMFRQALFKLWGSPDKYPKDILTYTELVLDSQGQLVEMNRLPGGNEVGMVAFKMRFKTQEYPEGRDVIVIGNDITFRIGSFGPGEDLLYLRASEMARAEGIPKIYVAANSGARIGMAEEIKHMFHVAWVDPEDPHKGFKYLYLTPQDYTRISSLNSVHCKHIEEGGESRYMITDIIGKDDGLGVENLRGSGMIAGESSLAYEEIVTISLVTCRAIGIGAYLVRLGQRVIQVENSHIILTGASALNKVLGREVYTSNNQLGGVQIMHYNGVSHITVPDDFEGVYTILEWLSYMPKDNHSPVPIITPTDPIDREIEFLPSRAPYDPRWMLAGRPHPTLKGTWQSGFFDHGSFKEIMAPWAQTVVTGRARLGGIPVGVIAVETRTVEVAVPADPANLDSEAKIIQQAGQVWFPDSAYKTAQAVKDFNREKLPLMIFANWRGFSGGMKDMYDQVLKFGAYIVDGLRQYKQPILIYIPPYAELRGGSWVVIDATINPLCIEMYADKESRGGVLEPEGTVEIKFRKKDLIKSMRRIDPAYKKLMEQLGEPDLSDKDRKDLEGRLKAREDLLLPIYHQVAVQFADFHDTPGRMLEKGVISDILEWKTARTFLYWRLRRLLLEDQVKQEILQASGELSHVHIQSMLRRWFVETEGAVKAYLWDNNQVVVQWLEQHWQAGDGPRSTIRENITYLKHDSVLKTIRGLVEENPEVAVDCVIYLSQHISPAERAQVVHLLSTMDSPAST

COc1ccc(F)cc1[C@H](Cn1c(=O)n([C@@H](C)C(=O)NC(C)C)c(=O)c2c(C)c(-n3nccn3)sc21)OCCO [Compound I-88, (S)-2-(1-((R)-2-(5-fluoro-2-methoxyphenyl)-2-(2-hydroxyethoxy)ethyl)-5-methyl-2,4-dioxo-6-(2H-1,2,3-triazol-2-yl)-1,4-dihydro-thieno[2,3-d]pyrimidin-3(2H)-yl)-N-isopropylpropanamide]
IC50 (human (hACC2); Table 2a): 5 to 10 nM
IC50 (human (hACC2); Table 2b, additional results): 5 to 10 nM
MIC (C. albicans; [3]): 1.1 to 2 µg/mL (≈ 1.91 to 3.48 µM)
MIC (C. albicans; [4]): 2.01 to 4 µg/mL (≈ 3.5 to 6.96 µM)
MIC (C. parapsilosis; [5]): 1.1 to 2 µg/mL (≈ 1.91 to 3.48 µM)
MIC (C. parapsilosis; [6]): 1.01 to 2 µg/mL (≈ 1.76 to 3.48 µM)
IC90 (Botrtyis cinerea (Bc); [7]): 2 µg/mL (≈ 3.48 µM)
IC90 (Botrtyis cinerea (Bc); [8]): 2 µg/mL (≈ 3.48 µM)
IC90 [1, 9]: 0.08 µg/mL (≈ 0.139 µM)
IC90 [1, 10]: 0.08 µg/mL (≈ 0.139 µM)
IC90 (Diplodia maydis (Dm); [11]): 0.4 µg/mL (≈ 0.696 µM)
IC90 (Diplodia maydis (Dm); [12]): 0.4 µg/mL (≈ 0.696 µM)
IC90 [2, 13]: 2 µg/mL (≈ 3.48 µM)
IC90 [2, 14]: 2 µg/mL (≈ 3.48 µM)
IC90 (Rhizoctonia solani (Rs); [15]): 0.08 µg/mL (≈ 0.139 µM)
IC90 (Rhizoctonia solani (Rs); [16]): 0.08 µg/mL (≈ 0.139 µM)
IC90 (Septoria tritici (St); [17]): 2 µg/mL (≈ 3.48 µM)
IC90 (Septoria tritici (St); [18]): 10 µg/mL (≈ 17.4 µM)
IC50 (fungal (fACC2); Table 2a): 1 to 5 nM
IC50 (fungal (fACC2); Table 2b, additional results): 0.3 to 1 nM

COc1ccc(F)cc1[C@H](Cn1c(=O)n([C@H](C)C(=O)NC(C)C)c(=O)c2c(C)c(-n3nccn3)sc21)OCCO [Compound I-89, (R)-2-(1-((R)-2-(5-fluoro-2-methoxyphenyl)-2-(2-hydroxy-ethoxy)ethyl)-5-methyl-2,4-dioxo-6-(2H-1,2,3-triazol-2-yl)-1,4-dihydrothieno[2,3-d]pyrimidin-3(2H)-yl)-N-isopropylpropanamide]
IC50 (human (hACC2); Table 2a): 10 to 40 nM
IC50 (human (hACC2); Table 2b, additional results): 5 to 10 nM
MIC (C. albicans; [3]): 2.1 to 4 µg/mL (≈ 3.65 to 6.96 µM)
MIC (C. albicans; [4]): 2.01 to 4 µg/mL (≈ 3.5 to 6.96 µM)
MIC (C. parapsilosis; [5]): 2.1 to 4 µg/mL (≈ 3.65 to 6.96 µM)
MIC (C. parapsilosis; [6]): 1.01 to 2 µg/mL (≈ 1.76 to 3.48 µM)
IC90 (Botrtyis cinerea (Bc); [7]): 0.4 µg/mL (≈ 0.696 µM)
IC90 (Botrtyis cinerea (Bc); [8]): 0.4 µg/mL (≈ 0.696 µM)
IC90 [1, 9]: > 50 µg/mL
IC90 [1, 10]: > 50 µg/mL
IC90 (Diplodia maydis (Dm); [11]): 2 µg/mL (≈ 3.48 µM)
IC90 (Diplodia maydis (Dm); [12]): 10 µg/mL (≈ 17.4 µM)
IC90 [2, 13]: > 50 µg/mL
IC90 [2, 14]: > 50 µg/mL
IC90 (Rhizoctonia solani (Rs); [15]): 2 µg/mL (≈ 3.48 µM)
IC90 (Rhizoctonia solani (Rs); [16]): 2 µg/mL (≈ 3.48 µM)
IC90 (Septoria tritici (St); [17]): > 50 µg/mL
IC90 (Septoria tritici (St); [18]): > 50 µg/mL
IC50 (fungal (fACC2); Table 2a): 1 to 5 nM
IC50 (fungal (fACC2); Table 2b, additional results): 1 to 5 nM

COc1ccc(F)cc1[C@H](Cn1c(=O)n(C(C)(C)C(=O)NC(C)C)c(=O)c2c(C)c(-n3nccn3)sc21)OCCC(N)=O [Compound I-90, (R)-2-(1-(2-(3-amino-3-oxopropoxy)-2-(5-fluoro-2-metho-xyphenyl)ethyl)-5-methyl-2,4-dioxo-6-(2H-1,2,3-triazol-2-yl)-1,4-dihydro-thieno[2,3-d]pyrimidin-3(2H)-yl)-N-isopropyl-2-methylpropanamide]
IC50 (human (hACC2); Table 2a): 10 to 40 nM
IC50 (human (hACC2); Table 2b, additional results): 10 to 40 nM
MIC (C. albicans; [19]): 2.1 to 4 µg/mL (≈ 3.41 to 6.5 µM)
MIC (C. albicans; [20]): 0.25 to 1 µg/mL (≈ 0.406 to 1.62 µM)
MIC (C. parapsilosis; [21]): 2.1 to 4 µg/mL (≈ 3.41 to 6.5 µM)
MIC (C. parapsilosis; [22]): 0.25 to 1 µg/mL (≈ 0.406 to 1.62 µM)
IC90 (Botrtyis cinerea (Bc); [23]): 2 µg/mL (≈ 3.25 µM)
IC90 (Botrtyis cinerea (Bc); [24]): 2 µg/mL (≈ 3.25 µM)
IC90 [1, 25]: 10 µg/mL (≈ 16.2 µM)
IC90 [1, 26]: > 50 µg/mL
IC90 (Diplodia maydis (Dm); [27]): > 50 µg/mL
IC90 (Diplodia maydis (Dm); [28]): > 50 µg/mL
IC90 [2, 29]: > 50 µg/mL
IC90 [2, 30]: > 50 µg/mL
IC90 (Rhizoctonia solani (Rs); [31]): 2 µg/mL (≈ 3.25 µM)
IC90 (Rhizoctonia solani (Rs); [32]): 2 µg/mL (≈ 3.25 µM)
IC90 (Septoria tritici (St); [33]): > 50 µg/mL
IC90 (Septoria tritici (St); [34]): > 50 µg/mL
IC50 (fungal (fACC2); Table 2a): 1 to 5 nM
IC50 (fungal (fACC2); Table 2b, additional results): 1 to 5 nM

COc1ccc(F)cc1[C@H](Cn1c(=O)n(C(C)(C)C(=O)NC(C)C)c(=O)c2c(C)c(-n3nccn3)sc21)OCCC#N [Compound I-91, (R)-2-(1-(2-(2-cyanoethoxy)-2-(5-fluoro-2-methoxy-phenyl)ethyl)-5-methyl-2,4-dioxo-6-(2H-1,2,3-triazol-2-yl)-1,4-dihydro-thieno[2,3-d]pyrimidin-3(2H)-yl)-N-isopropyl-2-methylpropanamide]
IC50 (human (hACC2); Table 2a): 10 to 40 nM
IC50 (human (hACC2); Table 2b, additional results): 10 to 40 nM
MIC (C. albicans; [19]): 0.25 to 1 µg/mL (≈ 0.418 to 1.67 µM)
MIC (C. albicans; [20]): 1.01 to 2 µg/mL (≈ 1.69 to 3.35 µM)
MIC (C. parapsilosis; [21]): 0.06 to 0.24 µg/mL (≈ 0.1 to 0.402 µM)
MIC (C. parapsilosis; [22]): 0.25 to 1 µg/mL (≈ 0.418 to 1.67 µM)
IC90 (Botrtyis cinerea (Bc); [23]): 0.4 µg/mL (≈ 0.669 µM)
IC90 (Botrtyis cinerea (Bc); [24]): 0.4 µg/mL (≈ 0.669 µM)
IC90 [1, 25]: 0.08 µg/mL (≈ 0.134 µM)
IC90 [1, 26]: 0.08 µg/mL (≈ 0.134 µM)
IC90 (Diplodia maydis (Dm); [27]): 0.08 µg/mL (≈ 0.134 µM)
IC90 (Diplodia maydis (Dm); [28]): 0.08 µg/mL (≈ 0.134 µM)
IC90 [2, 29]: 2 µg/mL (≈ 3.35 µM)
IC90 [2, 30]: 10 µg/mL (≈ 16.7 µM)
IC90 (Rhizoctonia solani (Rs); [31]): 0.08 µg/mL (≈ 0.134 µM)
IC90 (Rhizoctonia solani (Rs); [32]): 0.08 µg/mL (≈ 0.134 µM)
IC90 (Septoria tritici (St); [33]): > 50 µg/mL
IC90 (Septoria tritici (St); [34]): > 50 µg/mL
IC50 (fungal (fACC2); Table 2a): 1 to 5 nM
IC50 (fungal (fACC2); Table 2b, additional results): 1 to 5 nM
